Results from patent US12643907B2 (priority 2020, dated 2026).
Entries after “also recorded” stand apart in the source; their conditions may differ.

Legend:
[1] = target: T1, MOR (Mus musculus, UniProt P42866); assay: Mouse 55° C. warm-water tail withdrawal (WWTW) assay, antagonism of the MOR agonist morphine; format: in vivo; conditions: for antagonism of morphine-induced antinociception at 24 h: 24 h after a 30 mg/kg s.c. treatment
T1 construct: from tissue; host or cells: living mice (in vivo)

[2] = test system: mice; assay: Mouse 55° C. tail-withdrawal assay, antinociception of the compound itself (opioid agonist effects); format: in vivo; conditions: s.c.
[3] = naloxone; cited from earlier work

T1 sequence (P42866 whole entry): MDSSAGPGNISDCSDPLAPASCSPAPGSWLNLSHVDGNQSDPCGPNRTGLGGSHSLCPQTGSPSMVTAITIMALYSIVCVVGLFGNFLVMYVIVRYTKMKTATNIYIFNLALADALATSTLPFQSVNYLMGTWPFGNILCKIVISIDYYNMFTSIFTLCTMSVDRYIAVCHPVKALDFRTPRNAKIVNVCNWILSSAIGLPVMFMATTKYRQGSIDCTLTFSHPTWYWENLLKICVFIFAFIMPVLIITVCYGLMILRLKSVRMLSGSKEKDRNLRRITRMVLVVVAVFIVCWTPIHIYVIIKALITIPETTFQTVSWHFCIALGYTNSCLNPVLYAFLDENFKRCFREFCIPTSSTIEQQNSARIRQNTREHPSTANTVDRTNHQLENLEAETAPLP

SMILES: C=CCN1CC[C@]23c4c5ccc(O)c4O[C@H]2[C@H](N(C)CCS(=O)(=O)F)CC[C@@]3(O)C1C5 [TJ-171]
- duration of MOR antagonism ([1]; 30 mg/kg, s.c.): at least 24 hours
- antagonism of morphine-induced antinociception at 24 h [1]: fully antagonized
- antinociception of compound alone (opioid agonist effects) ([2]; doses up to 30 mg/kg): did not display antinociception; also recorded: no antinociception

SMILES: C=CCN1CCC23c4c5ccc(O)c4OC2C(N(C)CCS(=O)(=O)F)CCC3(O)C1C5 (racemic) [TJ-345]
- antagonism of morphine-induced antinociception at 24 h ([1]; 30 mg/kg): only partial blockade; also recorded: only partially antagonized
- duration of blockade of opiate analgesia ([1]; doses as low as 3 nmol (i.c.v) or 30 mg/kg (s.c.)): 24 to 48 h
- doses that antagonized morphine antinociception ([1]; i.c.v. pretreatment, not 0.3 nmol): 3 to 300 nmol
- doses that antagonized morphine antinociception ([1]; s.c. pretreatment, not 1 mg/kg): 3 to 60 mg/kg
- weak transient antinociception of compound alone ([2]; >30 nmol i.c.v. or 60 mg/kg, first 40 min after treatment): ~15%

SMILES: C=CCN1CC[C@]23c4c5ccc(O)c4O[C@H]2C(=O)CC[C@@]3(O)[C@H]1C5 [naloxone]
- half-life [3]: 2 h
